Data from ChEMBL document CHEMBL1133373, “Chemical and enzymatic modifications of integric acid and HIV-1 integrase inhibitory activity” (Bioorg Med Chem Lett, 2000).
pIC50: −log10 of the molar value. The source made the active and inactive calls. The calls are words filed in the database; no cut-off is given here.

Assays:
[1] = molecular target: Human immunodeficiency virus type 1 integrase (Human immunodeficiency virus 1) (UniProt Q7ZJM1); assay: Compound was tested for strand transfer activity against HIV-1 integrase at 50 uM; weak inhibition
[2] = molecular target: Human immunodeficiency virus type 1 integrase (Human immunodeficiency virus 1) (UniProt Q7ZJM1); assay: Activity against HIV-1 integrase in range 5-20 uM compared to integric acid.
[3] = molecular target: Human immunodeficiency virus type 1 integrase (Human immunodeficiency virus 1, UniProt Q7ZJM1); assay: Inhibitory activity against HIV-1 integrase
Human immunodeficiency virus type 1 integrase, sequence (Q7ZJM1 whole entry): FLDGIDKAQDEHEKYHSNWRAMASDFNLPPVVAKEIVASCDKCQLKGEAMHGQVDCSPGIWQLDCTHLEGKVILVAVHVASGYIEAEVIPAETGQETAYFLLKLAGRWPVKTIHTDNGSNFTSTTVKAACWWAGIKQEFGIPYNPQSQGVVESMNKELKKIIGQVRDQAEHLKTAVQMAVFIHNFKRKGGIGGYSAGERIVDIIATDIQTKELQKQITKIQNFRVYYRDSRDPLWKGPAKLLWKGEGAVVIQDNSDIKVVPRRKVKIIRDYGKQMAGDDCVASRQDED

Human immunodeficiency virus type 1 integrase (Human immunodeficiency virus 1), sequence (Q7ZJM1 as listed by the source): as the sequence (Q7ZJM1 whole entry) above

Compound: CCCCC(C)/C=C(\C)C(=O)O[C@@H]1CC[C@H](C(=O)O)[C@@]2(C)CC([C@@H](C)C=O)C(=O)C=C12 (stereo not given in full)
- Activity [1]: weak inhibition
- Activity [2]: Active
- pIC50 [3]: 4.96

Compound: C=C(C=O)[C@@H]1C[C@@]2(C)C(=CC1=O)[C@H](OC(=O)/C(C)=C/C(C)CCCC)CC[C@@H]2C(=O)NCCNC(=O)[C@H]1CC[C@@H](OC(=O)/C(C)=C/C(C)CCCC)C2=CC(=O)[C@H](C(=C)C=O)C[C@@]21C (stereo not given in full)
- Activity [2]: Active
- pIC50 [3]: 5.00

Compound: C=C/C(C)=C1\C[C@@]2(C)C(=CC1=O)[C@H](OC(=O)/C(C)=C/C(C)CCCC)CC[C@@H]2C(=O)O (stereo not given in full)
- pIC50 [3]: 4.12

Compound: C=C(C=O)[C@@H]1C[C@@]2(C)C(=CC1=O)[C@H](OC(=O)/C(C)=C/C(C)CCCC)CC[C@@H]2C(=O)N[C@@H](CC(C)C)C(=O)OC (stereo not given in full)
- Activity [2]: Active
- pIC50 [3]: 5.52

Compound: C=CC(=C)[C@@H]1C[C@@]2(C)C(=CC1=O)[C@H](OC(=O)/C(C)=C/C(C)CCCC)CC[C@@H]2C(=O)O (stereo not given in full)
- pIC50 [3]: 4.52

Compound: CC1=C2C[C@@]3(C)C(=CCC[C@@H]3C(=O)O)C=C2OC1=O
- pIC50 [3]: < 4.00

Compound: C=C(C=O)[C@@H]1C[C@@]2(C)C(=CC1=O)[C@H](OC(=O)/C(C)=C/C(C)CCCC)CC[C@@H]2C(=O)ON[C@H](C(=O)OC)c1ccccc1 (stereo not given in full)
- Activity [2]: Active
- pIC50 [3]: 5.30

Compound: C=C(C=O)[C@@H]1C[C@@]2(C)C(=CC1=O)[C@H](OC(=O)/C(C)=C/C(C)CCCC)CC[C@@H]2C(=O)O (stereo not given in full)
- Activity [2]: Active
- pIC50 [3]: 5.52

Compound: CCCCC(C)/C=C(\C)C(=O)O[C@@H]1CC[C@H](C(=O)O)[C@@]2(C)C[C@H]3[C@H](C)CO[C@]3(O)C[C@H]12 (stereo not given in full)
- pIC50 [3]: 4.00

Compound: CCCCC(C)/C=C(\C)C(=O)O[C@@H]1CC[C@H](C(=O)O)[C@@]2(C)C[C@H]3[C@@H](C)CO[C@]3(O)C[C@H]12 (stereo not given in full)
- pIC50 [3]: 4.35

Compound: CCCCC(C)/C=C(\C)C(=O)O[C@@H]1CC[C@H](C(=O)O)[C@@]2(C)CC3C(C)C(O)OC3(O)C=C12 (stereo not given in full)
- pIC50 [3]: 4.40

Compound: C=C(CO)[C@@H]1C[C@@]2(C)C(=C[C@H]1O)[C@H](OC(=O)/C(C)=C/C(C)CCCC)CC[C@@H]2C(=O)O (stereo not given in full)
- pIC50 [3]: 4.14

Compound: C=C(C=O)[C@@H]1C[C@@]2(C)C(=CC1=O)[C@H](OC(=O)/C(C)=C/C(C)CCCC)CC[C@@H]2C(=O)N1CCN(C(=O)[C@H]2CC[C@@H](OC(=O)/C(C)=C/C(C)CCCC)C3=CC(=O)[C@H](C(=C)C=O)C[C@@]32C)CC1 (stereo not given in full)
- Activity [2]: Active
- pIC50 [3]: 4.62

Compound: CCCCC(C)/C=C(\C)C(=O)O[C@@H]1CC[C@H](C(=O)O)[C@@]2(C)C[C@@H]([C@H](C)C=O)C(=O)C=C12 (stereo not given in full)
- Activity [1]: weak inhibition
- Activity [2]: Active
- pIC50 [3]: 4.96

Compound: C=C(C=O)[C@@H]1C[C@@]2(C)C(=CC1=O)[C@H](OC(=O)/C(C)=C/C(C)CCCC)CC[C@@H]2C(=O)OP(=O)(OCC)OCC (stereo not given in full)
- pIC50 [3]: 4.09

Compound: CCCCC(C)/C=C(\C)C(=O)O (stereo not given)
- Activity [2]: Active
- pIC50 [3]: 4.92

Compound: CCCCC(C)/C=C(\C)C(=O)O[C@@H]1CC[C@H](C(=O)O)[C@@]2(C)C[C@@H](C(C)C(O)O)C(=O)C=C12 (stereo not given in full)
- pIC50 [3]: 4.40

Compound: C=C(C=O)[C@@H]1C[C@@]2(C)C(=CC1=O)[C@H](OC(=O)/C(C)=C/C(C)CCCC)CC[C@@H]2C(=O)O/C(=N\C1CCCCC1)NC1CCCCC1 (stereo not given in full)
- pIC50 [3]: 4.06

Compound: C=C(C=O)[C@@H]1C[C@@]2(C)C(=CC1=O)[C@H](OC(=O)/C(C)=C/C(C)CCCC)CC[C@@H]2C(=O)ON[C@@H](C(=O)OC)c1ccccc1 (stereo not given in full)
- Activity [2]: Active
- pIC50 [3]: 5.30
